Experimental data published in patent publication US7816075B2, “Methods and compositions using stearoyl-CoA desaturase to identify triglyceride reducing therapeutic agents” (Xenon Pharmaceuticals Inc., priority 2000, dated 2010).

What was measured:
SCD1 = target: T1, SCD1 (Mus musculus, UniProt P13516); test: SCD1 desaturase activity assay, transfer of 3H from 3H-stearoyl CoA to water in liver microsomes; format: biochemical; conditions: for inhibition of SCD1: pre-conjugated to CoA (microsomes incubated with CoA and ATP before 3H-stearoyl CoA)
T1 construct: from tissue; host or cells: mouse liver microsomes (wild type, after a high carbohydrate fat-free diet)
T1 sequence (P13516 1-355): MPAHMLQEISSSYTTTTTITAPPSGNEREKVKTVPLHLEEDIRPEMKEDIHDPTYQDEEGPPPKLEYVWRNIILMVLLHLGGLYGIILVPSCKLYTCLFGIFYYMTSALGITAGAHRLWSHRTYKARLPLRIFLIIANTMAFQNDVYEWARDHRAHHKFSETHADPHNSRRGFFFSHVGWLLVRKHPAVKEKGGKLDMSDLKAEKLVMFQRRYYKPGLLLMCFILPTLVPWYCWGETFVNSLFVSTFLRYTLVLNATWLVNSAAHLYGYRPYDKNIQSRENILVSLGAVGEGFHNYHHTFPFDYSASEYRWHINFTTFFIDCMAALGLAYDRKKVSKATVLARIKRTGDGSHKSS
Experimental: Microsomes from wild type livers were used for this experiment. A turnover number for SCD1 activity under these conditions was estimated at 2 nmol/min/mg protein, which is about half that observed at 37° C.
Livers were collected from wild type and SCD1 knockout mice following 3 days on a high carbohydrate fat-free diet (this induces SCD1 expression in liver by about 50-fold), homogenized and a portion used for microsome purification. ^3H-water production was determined for 15 minutes at RT (room temperature) in both homogenate and microsome preparations at equivalent protein concentration, followed by quenching the reaction with acid and using charcoal to separate substrate from product. Quenching the sample with acid prior to the addition of substrate offers a blank, or control containing background radioactivity without any desaturation reaction. […] The “window”, or SCD1-dependent desaturation in this assay, is a highly visible and significant 160-fold difference between wild type and SCD1 knockout microsomes.
Microsomes from wild type mice were used to test the effectiveness of three known inhibitors of SCD1: conjugated linoleic acid (CLA), 9-thia stearic acid (9-thia) and sterculic acid (SA). […] This experiment establishes that SCD1 activity can be inhibited with known inhibitors but they appear to require conjugation with CoA. An important use of this screening assay is to find small molecules that are potent inhibitors of SCD1 biological activity without conjugation to CoA.
In a preferred embodiment, the assay makes use of ^3H-stearoyl CoA (with the ^3H on the 9 and 10 carbon atoms), the substrate for SCD1. Desaturation by SCD1, produces oleoyl CoA and 3H-water molecules. The reaction is run at room temperature, quenched with acid and then activated charcoal is used to separate unreacted substrate from the radioactive water product. The charcoal is sedimented and amount of radioactivity in the supernatant is determined by liquid scintillation counting. This assay is specific for SCD1-dependent desaturation as judged by the difference seen when comparing the activity in wild type and SCD1-knockout tissues. Further, the method is easily adapted to high throughput as it is cell-free, conducted at room temperature and is relatively brief (1 hour reaction time period versus previous period of 2 days). This procedure is illustrated more fully in FIGS. 17 to 20.

[1] = tested on: human SCD mRNA expression; test: Northern blot of SCD mRNA in treated HepG2 cells; format: cell-based; conditions: range of doses, cholesterol 10 μg/ml with 1 μg/ml 25-hydroxycholesterol, FIG. 15
Experimental: FIG. 15. Human HepG2 cells cultured and treated with a range of doses of arachidonic acid, DHA or 10 μg/ml cholesterol or EPA as indicated. Total mRNA was isolated and quantified. Isolation and Analysis of RNA-Total RNA was isolated from HepG2 cells using the acid guanidinium-phenol-chloroform extraction method. Twenty micrograms of total RNA was separated by 0.8% agarose/2.2 M formaldehyde gel electrophoresis and transferred onto nylon membrane. The membrane was hybridized with ^32P-labeled human SCD cDNA probe generated by PCR as follows: pAL15 probe was used as control for equal loading. We tested whether the human SCD gene expression was also repressed by cholesterol and polyunsaturated fatty acids. Human HepG2 cells were cultured and then treated with 100 μM arachidonic acid, DHA or 10 μg/ml cholesterol and 1 μg/ml of 25-hydroxycholesterol cholesterol as we have described previously. Total mRNA was isolated and subjected to northern blot analysis using a probe corresponding to the human cDNA and generated by the PCR method using primers based on published human SCD cDNA sequence.

human SCD promoter = test: Human SCD promoter-luciferase reporter (pSCD-500) in transfected HepG2 cells; format: cell-based; conditions: for SCD promoter activity: HepG2 cells co-transfected with mature SREBP-1a, in the presence of cholesterol, fatty acids as albumin complexes (data not shown)
Experimental: The decrease in promoter activity in the reporter construct correlated with decreases in endogenous SCD mRNA and protein levels. […] Our studies indicate that like the mouse SCD1 gene, the human SCD gene is regulated by polyunsaturated fatty acids and cholesterol at the level of gene transcription and that SREBP plays a role in the transcriptional activation of this gene. Cell Culture and DNA transfections—HepG2 cells, were grown in Low Glucose DMEM supplemented with 10% Fetal Bovine Serum and 1% Penicillin/Streptomycin solution and maintained at 37 C, 5% CO2 in a humidified incubator. Cells were passaged into 6 cm dishes to give 40-70% confluence in about 12-16 hours. Cells were then transfected with 5 μg plasmid DNA per plate of pSCD-500 or the Basic PGL3 reporter as well as well as the pRL-TK, internal controls (Promega) using the LT-1 transfection reagent (Pan Vera). After 48 hours, cells were rinsed with PBS and then treated in Williams' E Media, a fatty acid-free media, containing insulin, dexamethasone, and appropriate concentrations of albumin-conjugated fatty acids as indicated in figures and legends. Cells were also treated with ethanol alone (as control) or cholesterol (10 μg/mL) and 25-OH cholesterol (1 μg/mL) dissolved in ethanol. After an additional 24 h, extracts were prepared and assayed for luciferase activity. Non-transfected cells were used as the blank and Renilla Luciferase was used as an internal control. Cell extracts were assayed for protein according to Lowry, and all results were normalized to protein concentration as well as to renilla luciferase counts. Each experiment was repeated at least three times, and all data are expressed as means±SEM. […] To observe the regulatory effects of mature SREBP-1a and PUFAs on the activity of SCD promoters, HepG2 hepatic cells were transiently co-transfected with 20 ng (per 6-cm dish) of plasmid DNA containing the human SCD promoter as described above but this time the transfections were carried out in the presence of cholesterol to inhibit the maturation of the endogenous SREBP and thus ensure that there was little mature form of the endogenous SREBP present in the cells. After transfection, the cells were then treated with, arachidonic acid, EPA and DHA as albumin complexes and luciferase activity was then assayed using a luminometer. If SREBP mediates PUFA repression of the human SCD gene, SCD promoter activity would not diminish upon treatment the transfected cells with PUFA.

SCD = target: T2, SCD (Homo sapiens, UniProt O00767); conditions: known from the literature; cited from earlier work
T2 sequence (O00767 1-359): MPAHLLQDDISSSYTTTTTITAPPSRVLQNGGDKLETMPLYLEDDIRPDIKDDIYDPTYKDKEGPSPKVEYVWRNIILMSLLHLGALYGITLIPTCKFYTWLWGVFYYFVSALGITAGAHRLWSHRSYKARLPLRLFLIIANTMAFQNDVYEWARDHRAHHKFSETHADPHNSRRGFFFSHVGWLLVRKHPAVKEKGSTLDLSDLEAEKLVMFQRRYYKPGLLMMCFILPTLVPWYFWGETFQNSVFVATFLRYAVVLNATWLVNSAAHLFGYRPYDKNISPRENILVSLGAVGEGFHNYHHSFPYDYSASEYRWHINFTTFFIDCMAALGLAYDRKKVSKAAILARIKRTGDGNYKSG

SCD protein = test: Western blot of SCD protein in treated HepG2 cells; format: cell-based, human; conditions: western blot of protein extracts (data not shown)
Experimental: Immunoblotting—Cell extracts were prepared from HepG2 cells that had been treated with the various fatty acids or cholesterol as described by Heinemann et al (17). The same amount of protein (60 μg) from each fraction was subjected to 10% SDS-polyacrylamide gel electrophoresis and transferred to Immobilon-P transfer membranes at 4° C. After blocking with 10% non-fat milk in TBS buffer (pH 8.0) plus 0.5% Tween at 4° C. overnight, the membrane was washed and incubated with rabbit anti-rat SCD as primary antibody (17) and goat anti-rabbit IgG-HRP conjugate as the secondary antibody. Visualization of the SCD protein was performed with ECL western blot detection kit. We tested whether the human SCD gene expression was also repressed by cholesterol and polyunsaturated fatty acids. Human HepG2 cells were cultured and then treated with 100 μM arachidonic acid, DHA or 10 μg/ml cholesterol and 1 μg/ml of 25-hydroxycholesterol cholesterol as we have described previously. Total mRNA was isolated and subjected to northern blot analysis using a probe corresponding to the human cDNA and generated by the PCR method using primers based on published human SCD cDNA sequence.

SCD1 mRNA = conditions: known from the literature; cited from earlier work
[2] = added as the free fatty acid, microsomes from wild type mice (FIG. 19 panel A)

For conjugated linoleic acid, the “suppression of SCD1 activity” value (SCD1; [2]) was “none were effective” and the “inhibition of SCD1” value (SCD1; FIG. 19 panel B) was “graded inhibition”.

For `CCCCC/C=C\C/C=C\C/C=C\C/C=C\CCCC(=O)O` [AA, arachidonic acid], the “human SCD mRNA expression” value [1] was “decreased the human SCD mRNA expression in a dose dependent manner” and the SCD promoter activity (human SCD promoter) was “continued to repress SCD promoter activity with only a slight attenuation”.

With `CCCCCCCCC1=C(CCCCCCCC(=O)O)C1` [sterculic acid, 8-(2-octyl-cyclopropenyl)octanoic acid] the “suppression of SCD1 activity” value (SCD1; [2]) was “none were effective”, the “inhibition of SCD1” value (SCD1; FIG. 19 panel B) was “graded inhibition” and the “suppression of SCD1 activity” value (SCD1; pre-conjugated to CoA, preincubation condition, FIG. 19 panel B) was about 100%.

In the case of `CCCCCC/C=C/C=C\CCCCCCCC(=O)O` [Cis-9, trans-11 conjugated linoleic acid], the “inhibition of SCD enzyme activity” value (SCD) is given as “does not”.

In the case of `CC/C=C\C/C=C\C/C=C\C/C=C\C/C=C\CCCC(=O)O` [EPA], the SCD promoter activity (human SCD promoter) is reported as “continued to repress SCD promoter activity with only a slight attenuation”.

With `CC(C)CCC[C@@H](C)[C@H]1CC[C@H]2[C@@H]3CC=C4C[C@@H](O)CC[C@]4(C)[C@H]3CC[C@]12C` [cholesterol] the “human SCD mRNA expression” value [1] was “decreased the human SCD mRNA expression in a dose dependent manner”, the “levels of the SCD protein” value (SCD protein) was “decreased the levels of the SCD protein” and the SCD promoter-luciferase activity (human SCD promoter; transiently transfected HepG2 cells) was “decreased the SCD promoter-luciferase activity”.

In the case of `CC/C=C\C/C=C\C/C=C\C/C=C\C/C=C\C/C=C\CCC(=O)O` [DHA], the “human SCD mRNA expression” value [1] is reported as “decreased the human SCD mRNA expression in a dose dependent manner” and the SCD promoter activity (human SCD promoter) is reported as “continued to repress SCD promoter activity with only a slight attenuation”.

In the case of `CCCCC/C=C\C=C\CCCCCCCCC(=O)O` [Cis-12, trans-10 conjugated linoleic acid], the “inhibition of SCD enzyme activity” value (SCD) is given as “effectively inhibit SCD enzyme activity” and the “abundance of SCD1 mRNA” value (SCD1 mRNA) is given as “reduce the abundance of SCD1 mRNA”.
